Results published in patent US20080312344A1, “DENDRIMERS MULTIVALENTLY SUBSTITUTED WITH ACTIVE GROUPS” (priority 2005, published 2008).

What was measured:
[1] = system: Candida albicans (strain CBS 562); test: adhesion inhibition of Candida albicans; type: cell-based; settings: CBS562
Experimental: Di-, tetra- and octavalent GINAc-linked “click” glycodendrimers as depicted herein-below were evaluated as adhesion inhibitors of Candida albicans (strain CBS 562) and compared to the free monosaccharide GlcNAc (N-acetyl glucosamine).

rat receptor NKRPI = molecular target: T1, rat receptor NKRPI (Rattus norvegicus, UniProt P27471); test: ELISA type assay, interaction with NKRPI receptor; type: binding
T1 sequence (P27471 1-223): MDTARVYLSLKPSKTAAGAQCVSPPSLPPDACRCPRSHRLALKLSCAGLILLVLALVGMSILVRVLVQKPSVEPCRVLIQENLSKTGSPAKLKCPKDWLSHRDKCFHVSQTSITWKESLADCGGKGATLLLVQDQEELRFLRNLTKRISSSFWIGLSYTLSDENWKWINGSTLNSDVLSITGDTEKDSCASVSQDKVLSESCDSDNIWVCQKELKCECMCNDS
Experimental: (§1) In addition, as a model for the interference with the natural killer cells of the immune system, the compounds were evaluated in an ELISA type assay for their interaction with the rat receptor NKRPI and the human CD 69 receptor.

human CD 69 receptor = molecular target: T2, human CD 69 receptor (Homo sapiens, UniProt Q07108); test: ELISA type assay, interaction with CD 69 receptor; type: binding
T2 sequence (Q07108 1-199): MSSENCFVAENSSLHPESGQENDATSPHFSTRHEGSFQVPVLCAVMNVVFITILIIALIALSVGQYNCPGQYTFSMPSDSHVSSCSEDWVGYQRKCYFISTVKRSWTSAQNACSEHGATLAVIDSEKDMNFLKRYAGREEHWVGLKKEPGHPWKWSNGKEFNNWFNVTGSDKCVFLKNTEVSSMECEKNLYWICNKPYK
Experimental: as §1

| SMILES | inhibition at 113 µM [1] | IC50 (rat receptor NKRPI; read-out: −log IC50 (NKRPI) (converted)) | IC50 (human CD 69 receptor; read-out: −log IC50 (CD69) (converted)) | −log IC50 (NKRPI) (rat receptor NKRPI) | −log IC50 (CD69) (human CD 69 receptor) |
| --- | --- | --- | --- | --- | --- |
| CC(=O)N[C@H]1C(O)O[C@H](CO)[C@@H](O)[C@@H]1O (some centres unmarked) [GlcNAc, N-acetyl glucosamine, reference compound] | 79% | 1 µM | 5.01 µM | – | – |
| COC(=O)c1cc(OCCNC(=O)c2cc(OCc3cn(CCCOC4OC(CO)C(O)C(O)C4NC(C)=O)nn3)cc(OCc3cn(CCCOC4OC(CO)C(O)C(O)C4NC(C)=O)nn3)c2)cc(OCCNC(=O)c2cc(OCc3cn(CCCOC4OC(CO)C(O)C(O)C4NC(C)=O)nn3)cc(OCc3cn(CCCOC4OC(CO)C(O)C(O)C4NC(C)=O)nn3)c2)c1 (centres unmarked) [TETRA] | – | – | – | 8.5 | 7.54 |
